Experimental data: patent publication US7575640B2, “Method for producing sugar and sugar-containing products from sugar-containing plant raw materials” (Zuckerforschung Tulln Gesellschaft m.b.H., priority 2003, dated 2009)
≈ marks a conversion by molar mass, not a printed value. Like-named read-outs stand apart in the source and are kept apart here.

What was measured:
thermophilic bacteria [1] = assay: pH drop (acid formation) in liquid culture medium inoculated with crude juice from sugar beet extraction, 65° C.; type: cell-based, thermophilic bacteria (mixed culture); details: 65° C.; for pH / ΔpH/h: 10 mg/l added at pH 6.47 (5.10 h)
Procedure: If a sugar-containing substrate, e.g. a sugar-containing liquid culture medium, as it is common in microbiology, is either non-sterilized or incubated after inoculation with a bacterial strain, an acid formation will occur which is the easiest to recognize by a drop in the pH. The same phenomenon will occur when incubating normal sugar-containing plant juices, e.g. beet juice. In an industrial process, e.g. in the recovery of sugar juice from sugar beets, a drop in the pH by degradation of sugar means a loss of sugar and a need for an alkalizing agent. Moreover, a drop in the pH with an increase in the germ content in the substrate often is associated with an unpleasant gas and nitrite formation.
(§1) A liquid culture medium, as commonly used in microbiology and consisting of 10 g of Bacto-peptone, 5 g of meat extract, 5 g of yeast extract, 1 g of glucose, 1 g of K2HPO4, 0.1 g of MgSO4*7H2O and 0.01 g of FeSO4*7H2O per liter of distilled water, is sterilized in conventional manner for 20 min at 120° C. and inoculated, in a vessel kept at a temperature of 65° C., with 20 ml of crude juice from a large-scale sugar beet extraction, wherein the pH is registered on a recorder. Upon the growth of thermophilic bacteria, the pH drops progressively. This indicates a microorganism-caused acid formation.
A mixed culture according to Example 1 is prepared.

[2] = tested on: pure culture strain DSMZ 457; assay: pH drop in liquid culture medium inoculated with pure culture strain; type: cell-based
Procedure: as §1
A liquid culture medium, as in Example 1, is inoculated with a pure culture strain DSMZ 457 of the Deutsche Sammlung für Mikroorganismen und Zellkulturen GmbH. A pH drop starting after 1 hour can be stopped by two additions of 0.2 ml of a 1% alcoholic solution of myristic acid (C14), corresponding to a concentration of merely 4 mg/l. After 4 hours, a renewed pH drop starts which can be stopped for further 7 hours by a further addition of 2 mg/l, i.e. in sum 6 mg/l.

mesophilic mixed culture = assay: pH drop in mixed culture incubated at 35° C.; type: cell-based
Procedure: as §1
A mixed culture according to Example 1 is prepared, yet incubated at 35° C. A pH drop starting after 5 hours cannot be stopped by 11 successive additions of 1 ml of a 1% alcoholic solution of myristic acid per liter culture, corresponding to 110 mg/l, and a further addition of 4 ml, i.e. in sum 150 mg/l.

thermophilic bacteria [3] = assay: determination of MIC by stepwise addition until stabilization of the pH, 65° C.; type: cell-based, thermophilic bacteria (mixed culture)
Procedure: To illustrate the antimicrobial activity within the scope of sugar production, examples are carried out with […] compounds by way of example. […] Upon the growth of thermophilic bacteria, the pH drops progressively. This indicates a microorganism-caused acid formation. […] The fatty acid compounds used in this Example are myristic acid and lauric acid, and their potassium salts, respectively. In this case, the acids were used both individually and in a 1:1 mixture, the salts were exclusively used in a 1:1 mixture.

yeasts = assay: efficacy relative to yeasts; type: cell-based; details: compared with thermophilic bacteria
[4] = Time 4.50 h, 2×2 mg/l added between pH 6.81 and 6.51
[5] = Time 6.25 h, 11×10 and 1×40 mg/l being added between pH 6.55 and 6.30
[6] = Time 6.50 h, 11×10 and 1×40 mg/l added between pH 6.55 and 6.30

CCCCCCCCCCCCCC(=O)O [myristic acid]
duration of effectiveness (pH drop stopped) (thermophilic bacteria [1]; 10 mg/l, mixed culture): at least 14 h | effect on pH drop (thermophilic bacteria [1]; 10 mg/l, mixed culture): suddenly and lastingly stopped | pH (thermophilic bacteria [1]; Time 5.50 h): 6.47 | ΔpH/h (thermophilic bacteria [1]; Time 5.50 h): 0.00 | pH (thermophilic bacteria [1]; Time 6 h): 6.47 | ΔpH/h (thermophilic bacteria [1]; Time 6 h): 0.00 | pH (thermophilic bacteria [1]; Time 7 h): 6.48 | ΔpH/h (thermophilic bacteria [1]; Time 7 h): −0.01 | pH (thermophilic bacteria [1]; Time 10 h): 6.50 | ΔpH/h (thermophilic bacteria [1]; Time 10 h): −0.01 | pH (thermophilic bacteria [1]; Time 13 h): 6.53 | ΔpH/h (thermophilic bacteria [1]; Time 13 h): −0.01 | pH (thermophilic bacteria [1]; Time 16 h): 6.55 | ΔpH/h (thermophilic bacteria [1]; Time 16 h): −0.01 | pH (thermophilic bacteria [1]; Time 19 h): 6.53 | ΔpH/h (thermophilic bacteria [1]; Time 19 h): 0.01 | time until renewed pH drop ([2]; 4 mg/l): 4 hours | pH [2, 4]: 6.51 | ΔpH/h [2, 4]: 0.60 | pH ([2]; Time 5 h, 4 mg/l): 6.50 | ΔpH/h ([2]; Time 5 h, 4 mg/l): 0.02 | pH ([2]; Time 6 h, 4 mg/l): 6.51 | ΔpH/h ([2]; Time 6 h, 4 mg/l): −0.01 | pH ([2]; Time 7 h, 4 mg/l): 6.51 | ΔpH/h ([2]; Time 7 h, 4 mg/l): 0.00 | pH ([2]; Time 8 h, 4 mg/l): 6.51 | ΔpH/h ([2]; Time 8 h, 4 mg/l): 0.00 | pH ([2]; Time 9 h, 4 mg/l): 6.48 | ΔpH/h ([2]; Time 9 h, 4 mg/l): 0.03 | ΔpH/h ([2]; Time 10.2 h, 4 mg/l, further 2 mg/l added at pH 6.39): 0.08 | pH ([2]; Time 10.2 h, 4 mg/l, further 2 mg/l added at this pH): 6.39 | pH ([2]; Time 11 h, in sum 6 mg/l): 6.39 | ΔpH/h ([2]; Time 11 h, in sum 6 mg/l): 0.00 | pH ([2]; Time 12 h, in sum 6 mg/l): 6.39 | ΔpH/h ([2]; Time 12 h, in sum 6 mg/l): 0.00 | pH ([2]; Time 13 h, in sum 6 mg/l): 6.39 | ΔpH/h ([2]; Time 13 h, in sum 6 mg/l): 0.00 | pH ([2]; Time 14 h, in sum 6 mg/l): 6.39 | ΔpH/h ([2]; Time 14 h, in sum 6 mg/l): 0.00 | pH ([2]; Time 15 h, in sum 6 mg/l): 6.39 | ΔpH/h ([2]; Time 15 h, in sum 6 mg/l): 0.00 | further time pH drop stopped ([2]; further 2 mg/l, in sum 6 mg/l): 7 hours | concentration that stops the pH drop ([2]; two additions of 2 mg/l, pure culture): 4 mg/l | pH (mesophilic mixed culture; [5]): 6.41 | ΔpH/h (mesophilic mixed culture; [5]): 0.56 | pH (mesophilic mixed culture; [6]): 6.30 | ΔpH/h (mesophilic mixed culture; [6]): 0.44 | pH (mesophilic mixed culture; Time 6.75 h, in sum 150 mg/l): 6.19 | ΔpH/h (mesophilic mixed culture; Time 6.75 h, in sum 150 mg/l): 0.44 | pH (mesophilic mixed culture; Time 7.00 h, in sum 150 mg/l): 6.06 | ΔpH/h (mesophilic mixed culture; Time 7.00 h, in sum 150 mg/l): 0.52 | pH (mesophilic mixed culture; Time 7.25 h, in sum 150 mg/l): 5.94 | ΔpH/h (mesophilic mixed culture; Time 7.25 h, in sum 150 mg/l): 0.48 | concentration that stops the pH drop (mesophilic mixed culture; pH drop cannot be stopped): > 150 mg/l | MIC (thermophilic bacteria [3]; dissolved in ethanol, 10 mg/l steps, maximum 150 mg/l, 65° C., read-out: Min. Inhibitory Conc. (MIC)): 10 µg/mL (≈ 43.8 µM) | MIC (thermophilic bacteria [3]; dissolved in ethanol, steps of 2 mg/l, read-out: Min. Inhibitory Conc. (MIC)): 6 µg/mL (≈ 26.3 µM) | MIC (thermophilic bacteria [3]; text summary of Example 9, read-out: MIC (concentration successfully used)): 6000 µg/mL (≈ 26300 µM) | efficacy relative to yeasts (yeasts): markedly lower efficacy
